From US12172959B2, “Mono- or di-substituted indole derivatives as dengue viral replication inhibitors” (priority 2015, dated 2024)

Assays:
DENV-2 16681 strain = assay: DENV-2 antiviral assay (eGFP fluorescence, Vero cells); type: cell-based, Dengue virus; details: DENV-2 16681 eGFP, MOI 0.5, 3 days
How it was run: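 eGFP-labelled DENV-2 16681 infected Vero cells (2500/well, MEM + 2% FCS) at MOI 0.5, one day after seeding onto 9-step 5-fold compound dilutions. After 3 days at 37 °C, eGFP fluorescence read at 488 nm; % inhibition normalised to virus and cell controls, EC50 by linear interpolation.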

DENV-3 strain H87 = assay: Tetravalent RT-qPCR assay Protocol B, serotype 3; type: cell-based; details: Dengue virus, DENV3, 168 h, RT-qPCR serotype 3 H87, 7 days
Protocol: The antiviral activity of the compounds of the invention was tested against DENV-1 strain Djibouti strain (D1/H/IMTSSA/98/606; Table 6), DENV-2 strain NGC (Table 7), DENV-3 strain H87 (Table 8) and DENV-4 strain SG/06K2270DK1/2005 (Table 9B) in a RT-qPCR assay. Vero-B or Vero-M cells (5×10^4) were seeded in 96-well plates. One day later, culture medium was replaced with 100 μL assay medium containing a 2×, 3× or 5× serial dilution of the compound (concentration range: 50 μg/mL-0.00038 μg/mL, 50 μg/mL-0.0076 μg/mL, and 50 μg/mL-0.00013 μg/mL, respectively) and 100 μL of dengue virus inoculum (DENV). Following a 2 hour incubation period, the cell monolayer was washed 3 times with assay medium to remove residual, non-adsorbed virus and cultures were further incubated for either 4 days (DENV-2 NGC) or 7 days (DENV-1 Djibouti strain D1/H/IMTSSA/98/606, DENV-3 strain H87 prototype, DENV-4 strain H241, and DENV-4 strain EDEN) in the presence of the inhibitor. Supernatant was harvested and viral RNA load was determined by real-time quantitative RT-PCR. The 50% effective concentration (EC50), which is defined as the compound concentration that is required to inhibit viral RNA replication by 50%, was determined using logarithmic interpolation.
RNA was isolated from 100 μL (or in some circumstances 150 μL) supernatant with the NucleoSpin 96 Virus kit (Filter Service, Duren, Germany) as described by the manufacturer. The sequences of the TaqMan primers (DENV-For, DENV-Rev; Table 5) and TaqMan probes (DENV-Probe Table 5) were selected from non-structural gene 3 (NS3) or NS5, of the respective flaviviruses using Primer Express software (version 2.0; Applied Biosystems, Lennik, Belgium). The TaqMan probe was fluorescently labelled with 6-carboxyfluorescein (FAM) at the 5′ end as the reporter dye, and with minor groove binder (MGB) at the 3′ end as the quencher (Table 5). One-step, quantitative RT-PCR was performed in a total volume of 25 μL, containing 13.9375 μL H2O, 6.25 μL master mix (Eurogentec, Seraing, Belgium), 0.375 μL forward primer, 0.375 μL reverse primer, 1 μL probe, 0.0625 μL reverse transcriptase (Eurogentec) and 3 μL sample. RT-PCR was performed using the ABI 7500 Fast Real-Time PCR System (Applied Biosystems, Branchburg, New Jersey, USA) using the following conditions: 30 min at 48° C. and 10 min at 95° C., followed by 40 cycles of 15 s at 95° C. and 1 min at 60° C. The data was analyzed using the ABI PRISM 7500 SDS software (version 1.3.1; Applied Biosystems). For absolute quantification, standard curves were generated using 10-fold dilutions of template preparations of known concentrations.

in vitro = type: cell-based; details: African green monkey, CC50
Protocol: (§1) Potential cytotoxic effects of the compounds were evaluated in uninfected quiescent Vero-B or Vero-M cells. Cells were seeded at 5×10^4 cells/well in a 96-well plate in the presence of two-, three- or five-fold serial dilutions (ranging from 50 μg/mL-0.0038 μg/mL, 50 μg/mL-0.0076 μg/mL, and 50 μg/mL-0.00013 μg/mL, respectively) of compound and incubated for 4 to 7 days. Culture medium was discarded and 100 μL 3-(4,5-dimethylthiazol-2-yl)-5-(3-carboxy-methoxyphenyl)-2-(4-sulfophenyl)-2H-tetrazolium/phenazinemethosulfate (MTS/PMS; Promega, Leiden, The Netherlands) in PBS was added to each well. Following a 2-hour incubation period at 37° C., the optical density was determined at 498 nm. Cytotoxic activity was calculated using the following formula: % cell viability=100×(ODCompound/ODCC), where ODCompound and ODCC correspond to the optical density at 498 nm of the uninfected cell cultures treated with compound and that of uninfected, untreated cell cultures, respectively. The 50% cytotoxic concentration (i.e., the concentration that reduces the total cell number with 50%; CC50) was calculated using linear interpolation.

[1] = system: uninfected quiescent Vero-B or Vero-M cells; assay: in vitro; type: cell-based; details: African green monkey
Protocol: as §1

For `COc1cc(NC(C(=O)c2c[nH]c3c(C)c(OC)ccc23)c2ccc(Cl)cc2OC)cc(S(C)(=O)=O)c1` (single isomer, unassigned) [Compound 6A, 2-(4-chloro-2-methoxyphenyl)-2-((3-methoxy-5-(methyl-sulfonyl)phenyl)amino)-1-(6-methoxy-7-methyl-1H-indol-3-yl)ethanone], the EC50 (DENV-2 16681 strain) was 0.068 nM, the EC50 (DENV-3 strain H87) was < 14 nM and the CC50 (in vitro) was > 92000 nM. For the same molecule, the CC50 [1] was > 92000 nM.

For `COc1cc(NC(C(=O)c2c[nH]c3c(C)c(F)ccc23)c2ccc(Cl)cc2OC)cc(S(C)(=O)=O)c1` (single isomer, unassigned) [Compound 2A, 2-(4-chloro-2-methoxyphenyl)-1-(6-fluoro-7-methyl-1H-indol-3-yl)-2-((3-methoxy-5-(methylsulfonyl)phenyl)amino)ethanone], the EC50 (DENV-2 16681 strain) was 0.26 nM, the EC50 (DENV-3 strain H87) was < 14 nM and the CC50 (in vitro) was 7300 nM. For the same molecule, the CC50 [1] was 11000 nM.

In the case of `COc1cc(NC(C(=O)c2c[nH]c3cc(OC)c(F)cc23)c2ccc(Cl)cc2OC)cc(S(C)(=O)=O)c1` (single isomer, unassigned) [Compound 5A, 2-(4-chloro-2-methoxyphenyl)-1-(5-fluoro-6-methoxy-1H-indol-3-yl)-2-((3-methoxy-5-(methylsulfonyl)phenyl)amino)ethanone], the EC50 (DENV-2 16681 strain) is reported as 0.41 nM, the EC50 (DENV-3 strain H87) is reported as 22 nM and the CC50 (in vitro) is reported as 9200 nM.

With `COc1cc(NC(C(=O)c2c[nH]c3cc(OC)c(C)cc23)c2ccc(Cl)cc2OC)cc(S(C)(=O)=O)c1` (single isomer, unassigned) [Compound 4A, 2-(4-chloro-2-methoxyphenyl)-2-((3-methoxy-5-(methyl-sulfonyl)phenyl)amino)-1-(6-methoxy-5-methyl-1H-indol-3-yl)ethanone] the EC50 (DENV-2 16681 strain) was 0.27 nM, the EC50 (DENV-3 strain H87) was < 14 nM and the CC50 (in vitro) was 4300 nM. The CC50 [1] was 6600 nM.

With `COc1cc(NC(C(=O)c2c[nH]c3cc(F)ccc23)c2ccc(Cl)cc2OC)cc(S(C)(=O)=O)c1` (single isomer, unassigned) [Compound 1A, 2-(4-chloro-2-methoxyphenyl)-1-(6-fluoro-1H-indol-3-yl)-2-((3-methoxy-5-(methylsulfonyl)phenyl)amino)ethanone] the EC50 (DENV-2 16681 strain) was 0.26 nM, the EC50 (DENV-3 strain H87) was < 15 nM and the CC50 (in vitro) was 8000 nM. It also gave a CC50 [1] of 11000 nM.
